Results as given in PubChem BioAssay (NCI).
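Protocol summary: plate cells (96-well), add compound at 5 concentrations, incubate 48 h, interpolate endpoints linearly. TGI is the concentration that stops growth completely.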

Tests used:
Assay in all cases: inhibition of tumour cell growth, NCI panel, 48 h
HCT-116 colon = system: HCT-116 colon
BT-549 breast = system: BT-549 breast
HT29 colon = system: HT29 colon
NCI-H23 lung = system: NCI-H23 lung
UACC-257 melanoma = system: UACC-257 melanoma
SK-MEL-28 melanoma = system: SK-MEL-28 melanoma
KM12 colon = system: KM12 colon
SR leukemia = system: SR leukemia
ACHN renal = system: ACHN renal
IGROV1 ovarian = system: IGROV1 ovarian
M14 melanoma = system: M14 melanoma
U251 CNS = system: U251 CNS
SNB-75 CNS = system: SNB-75 CNS
HCT-15 colon = system: HCT-15 colon
NCI-H226 lung = system: NCI-H226 lung
CAKI-1 renal = system: CAKI-1 renal
RXF 393 renal = system: RXF 393 renal
SK-MEL-5 melanoma = system: SK-MEL-5 melanoma
MOLT-4 leukemia = system: MOLT-4 leukemia
SN12C renal = system: SN12C renal
A549 NSCLC = system: A549 NSCLC
COLO 205 colon = system: COLO 205 colon
MCF7 breast = system: MCF7 breast
HOP-92 NSCLC = system: HOP-92 NSCLC
TK-10 renal = system: TK-10 renal
SK-OV-3 ovarian = system: SK-OV-3 ovarian
LOX IMVI melanoma = system: LOX IMVI melanoma
HOP-62 NSCLC = system: HOP-62 NSCLC
SK-MEL-2 melanoma = system: SK-MEL-2 melanoma
SW-620 colon = system: SW-620 colon
DU-145 prostate = system: DU-145 prostate
MDA-N = system: MDA-N
SF-539 CNS = system: SF-539 CNS
OVCAR-5 ovarian = system: OVCAR-5 ovarian
A498 renal = system: A498 renal
OVCAR-4 ovarian = system: OVCAR-4 ovarian
OVCAR-3 ovarian = system: OVCAR-3 ovarian
MDA-MB-435 = system: MDA-MB-435
UO-31 renal = system: UO-31 renal
K-562 leukemia = system: K-562 leukemia
T-47D breast = system: T-47D breast
RPMI-8226 leukemia = system: RPMI-8226 leukemia
NCI/ADR-RES ovarian = system: NCI/ADR-RES ovarian
CCRF-CEM leukemia = system: CCRF-CEM leukemia
HL-60(TB) leukemia = system: HL-60(TB) leukemia
PC-3 prostate = system: PC-3 prostate
SNB-19 CNS = system: SNB-19 CNS
786-0 renal = system: 786-0 renal
OVCAR-8 ovarian = system: OVCAR-8 ovarian
SF-295 CNS = system: SF-295 CNS
EKVX NSCLC = system: EKVX NSCLC
MDA-MB-231 breast = system: MDA-MB-231 breast
NCI-H522 lung = system: NCI-H522 lung
UACC-62 melanoma = system: UACC-62 melanoma
HCC-2998 colon = system: HCC-2998 colon
MALME-3M melanoma = system: MALME-3M melanoma
NCI-H460 lung = system: NCI-H460 lung
SF-268 CNS = system: SF-268 CNS
HS 578T breast = system: HS 578T breast

Measured: TGI

CCOc1cc(NC(C)=O)ccc1C(=O)NN1C(=O)/C(=C/c2ccc(Cl)cc2)N=C1c1ccccc1
81.4 µM: A498 renal
77.1 µM: T-47D breast
89.6 µM: HL-60(TB) leukemia
93 µM: CCRF-CEM leukemia
81.3 µM: SK-MEL-5 melanoma
not listed: NCI-H522 lung | UACC-62 melanoma | HCC-2998 colon | MALME-3M melanoma | NCI-H460 lung | SF-268 CNS | HS 578T breast
> 100 µM: all other assays above

CC(=O)O[C@H]1CC[C@@]2(C)C(=CC[C@@H]3[C@@H]2CC[C@]2(C)C(=O)/C(=C\c4ccccc4)C[C@@H]32)C1
not listed: HL-60(TB) leukemia | HS 578T breast
> 100 µM: all other assays above

C/C(=C/C(=O)N(C)c1ccccc1Cl)O[Si](C(C)C)(C(C)C)C(C)C
47 µM: OVCAR-8 ovarian
31.1 µM: HOP-92 NSCLC
46.4 µM: SF-268 CNS
39.3 µM: UO-31 renal
75.3 µM: EKVX NSCLC
70.9 µM: M14 melanoma
33.5 µM: OVCAR-3 ovarian
68.7 µM: MDA-N
37.1 µM: HCT-15 colon
56.6 µM: BT-549 breast
74.8 µM: SF-295 CNS
38.7 µM: U251 CNS
64.5 µM: SNB-19 CNS
34.2 µM: HCT-116 colon
34.8 µM: OVCAR-5 ovarian
33.1 µM: 786-0 renal
74.4 µM: HOP-62 NSCLC
38.9 µM: SW-620 colon
66.4 µM: UACC-257 melanoma
32.4 µM: SN12C renal
63.9 µM: RPMI-8226 leukemia
50.1 µM: MDA-MB-231 breast
34 µM: HT29 colon
51.5 µM: MALME-3M melanoma
56.2 µM: NCI-H460 lung
33.2 µM: LOX IMVI melanoma
62.2 µM: NCI-H23 lung
38.3 µM: SF-539 CNS
> 100 µM: SK-MEL-28 melanoma | KM12 colon | SNB-75 CNS | CAKI-1 renal | MOLT-4 leukemia | A549 NSCLC | TK-10 renal | SK-OV-3 ovarian | DU-145 prostate | OVCAR-4 ovarian | MDA-MB-435 | T-47D breast
59.7 µM: IGROV1 ovarian
39.6 µM: NCI/ADR-RES ovarian
34.5 µM: NCI-H226 lung | RXF 393 renal
31.8 µM: NCI-H522 lung
30.8 µM: SK-MEL-5 melanoma
32.6 µM: COLO 205 colon

COc1ccc(N(c2ccc(C#N)cc2)c2ccc(C#N)cc2)cc1
77.6 µM: T-47D breast
82.9 µM: NCI-H522 lung
not listed: SR leukemia | RXF 393 renal | K-562 leukemia | RPMI-8226 leukemia | NCI/ADR-RES ovarian | HCC-2998 colon | MALME-3M melanoma
> 100 µM: all other assays above
